Test results from PubChem BioAssay (NCI).
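Cells were grown in 96-well plates and exposed to each compound for 48 hours at five concentrations; endpoints were interpolated linearly between bracketing concentrations, or set to the highest concentration if not reached. TGI: total growth inhibition.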

Tests used:
Assay in all cases: growth of human tumour cells (NCI), 48 h
786-0 renal = test system: 786-0 renal
A498 renal = test system: A498 renal
A549 NSCLC = test system: A549 NSCLC
ACHN renal = test system: ACHN renal
BT-549 breast = test system: BT-549 breast
CAKI-1 renal = test system: CAKI-1 renal
CCRF-CEM leukemia = test system: CCRF-CEM leukemia
COLO 205 colon = test system: COLO 205 colon
DU-145 prostate = test system: DU-145 prostate
EKVX NSCLC = test system: EKVX NSCLC
HCC-2998 colon = test system: HCC-2998 colon
HCT-116 colon = test system: HCT-116 colon
HCT-15 colon = test system: HCT-15 colon
HL-60(TB) leukemia = test system: HL-60(TB) leukemia
HOP-62 NSCLC = test system: HOP-62 NSCLC
HOP-92 NSCLC = test system: HOP-92 NSCLC
HS 578T breast = test system: HS 578T breast
HT29 colon = test system: HT29 colon
IGROV1 ovarian = test system: IGROV1 ovarian
K-562 leukemia = test system: K-562 leukemia
KM12 colon = test system: KM12 colon
LOX IMVI melanoma = test system: LOX IMVI melanoma
M14 melanoma = test system: M14 melanoma
MALME-3M melanoma = test system: MALME-3M melanoma
MCF7 breast = test system: MCF7 breast
MDA-MB-231 breast = test system: MDA-MB-231 breast
MDA-N = test system: MDA-N
MOLT-4 leukemia = test system: MOLT-4 leukemia
NCI-H226 lung = test system: NCI-H226 lung
NCI-H23 lung = test system: NCI-H23 lung
NCI-H460 lung = test system: NCI-H460 lung
NCI-H522 lung = test system: NCI-H522 lung
NCI/ADR-RES ovarian = test system: NCI/ADR-RES ovarian
OVCAR-3 ovarian = test system: OVCAR-3 ovarian
OVCAR-4 ovarian = test system: OVCAR-4 ovarian
OVCAR-5 ovarian = test system: OVCAR-5 ovarian
OVCAR-8 ovarian = test system: OVCAR-8 ovarian
PC-3 prostate = test system: PC-3 prostate
RPMI-8226 leukemia = test system: RPMI-8226 leukemia
RXF 393 renal = test system: RXF 393 renal
SF-268 CNS = test system: SF-268 CNS
SF-295 CNS = test system: SF-295 CNS
SF-539 CNS = test system: SF-539 CNS
SK-MEL-2 melanoma = test system: SK-MEL-2 melanoma
SK-MEL-28 melanoma = test system: SK-MEL-28 melanoma
SK-MEL-5 melanoma = test system: SK-MEL-5 melanoma
SK-OV-3 ovarian = test system: SK-OV-3 ovarian
SN12C renal = test system: SN12C renal
SNB-19 CNS = test system: SNB-19 CNS
SNB-75 CNS = test system: SNB-75 CNS
SR leukemia = test system: SR leukemia
SW-620 colon = test system: SW-620 colon
T-47D breast = test system: T-47D breast
UACC-257 melanoma = test system: UACC-257 melanoma
UACC-62 melanoma = test system: UACC-62 melanoma
UO-31 renal = test system: UO-31 renal
MDA-MB-435 = test system: MDA-MB-435
TK-10 renal = test system: TK-10 renal
U251 CNS = test system: U251 CNS

Cc1ccc([N+](=O)[O-])cc1S(=O)(=O)Nc1ccc(C2=NOC(c3ccccc3)C2)cc1 (stereo not given)
TGI (786-0 renal): 35.6 µM | TGI (A498 renal): 56.8 µM | TGI (A549 NSCLC): > 100 µM | TGI (ACHN renal): 50.4 µM | TGI (BT-549 breast): 51.9 µM | TGI (CAKI-1 renal): 32.7 µM | TGI (CCRF-CEM leukemia): 59.2 µM | TGI (COLO 205 colon): 33.8 µM | TGI (DU-145 prostate): 33.9 µM | TGI (EKVX NSCLC): 69.1 µM | TGI (HCC-2998 colon): 25.8 µM | TGI (HCT-116 colon): 24.1 µM | TGI (HCT-15 colon): > 100 µM | TGI (HL-60(TB) leukemia): 25.2 µM | TGI (HOP-62 NSCLC): 22.9 µM | TGI (HOP-92 NSCLC): 61.2 µM | TGI (HS 578T breast): > 100 µM | TGI (HT29 colon): 43.8 µM | TGI (IGROV1 ovarian): > 100 µM | TGI (K-562 leukemia): 5.14 µM | TGI (KM12 colon): 18.5 µM | TGI (LOX IMVI melanoma): 24.3 µM | TGI (M14 melanoma): 18.1 µM | TGI (MALME-3M melanoma): 68.2 µM | TGI (MCF7 breast): 16.5 µM | TGI (MDA-MB-231 breast): 88.3 µM | TGI (MDA-N): 6.38 µM | TGI (MOLT-4 leukemia): 9.23 µM | TGI (NCI-H226 lung): > 100 µM | TGI (NCI-H23 lung): > 100 µM | TGI (NCI-H460 lung): 29.1 µM | TGI (NCI-H522 lung): 30.1 µM | TGI (NCI/ADR-RES ovarian): 67.3 µM | TGI (OVCAR-3 ovarian): 10.5 µM | TGI (OVCAR-4 ovarian): 11.8 µM | TGI (OVCAR-5 ovarian): > 100 µM | TGI (OVCAR-8 ovarian): > 100 µM | TGI (PC-3 prostate): > 100 µM | TGI (RPMI-8226 leukemia): 34.6 µM | TGI (RXF 393 renal): 9.44 µM | TGI (SF-268 CNS): > 100 µM | TGI (SF-295 CNS): 19.7 µM | TGI (SF-539 CNS): 33.4 µM | TGI (SK-MEL-2 melanoma): 21.3 µM | TGI (SK-MEL-28 melanoma): > 100 µM | TGI (SK-MEL-5 melanoma): 20.1 µM | TGI (SK-OV-3 ovarian): 56.5 µM | TGI (SN12C renal): 71.7 µM | TGI (SNB-19 CNS): 55.5 µM | TGI (SNB-75 CNS): 70.3 µM | TGI (SR leukemia): 12.1 µM | TGI (SW-620 colon): 59.1 µM | TGI (T-47D breast): 51.1 µM | TGI (UACC-257 melanoma): 79.6 µM | TGI (UACC-62 melanoma): 18.3 µM | TGI (UO-31 renal): 72.1 µM

Nc1nc([O-])c([I+]c2ccccc2)c(=O)[nH]1
TGI (786-0 renal): > 100 µM | TGI (A498 renal): > 100 µM | TGI (A549 NSCLC): > 100 µM | TGI (ACHN renal): > 100 µM | TGI (BT-549 breast): > 100 µM | TGI (CAKI-1 renal): > 100 µM | TGI (CCRF-CEM leukemia): > 100 µM | TGI (COLO 205 colon): > 100 µM | TGI (DU-145 prostate): > 100 µM | TGI (EKVX NSCLC): > 100 µM | TGI (HCC-2998 colon): > 100 µM | TGI (HCT-116 colon): > 100 µM | TGI (HCT-15 colon): > 100 µM | TGI (HL-60(TB) leukemia): > 100 µM | TGI (HOP-62 NSCLC): > 100 µM | TGI (HOP-92 NSCLC): > 100 µM | TGI (HS 578T breast): > 100 µM | TGI (HT29 colon): > 100 µM | TGI (IGROV1 ovarian): > 100 µM | TGI (K-562 leukemia): > 100 µM | TGI (KM12 colon): > 100 µM | TGI (LOX IMVI melanoma): > 100 µM | TGI (MALME-3M melanoma): > 100 µM | TGI (MCF7 breast): > 100 µM | TGI (MDA-MB-231 breast): > 100 µM | TGI (MDA-MB-435): > 100 µM | TGI (MDA-N): > 100 µM | TGI (MOLT-4 leukemia): > 100 µM | TGI (NCI-H226 lung): > 100 µM | TGI (NCI-H23 lung): > 100 µM | TGI (NCI-H460 lung): > 100 µM | TGI (NCI-H522 lung): > 100 µM | TGI (NCI/ADR-RES ovarian): > 100 µM | TGI (OVCAR-3 ovarian): > 100 µM | TGI (OVCAR-4 ovarian): > 100 µM | TGI (OVCAR-5 ovarian): > 100 µM | TGI (OVCAR-8 ovarian): > 100 µM | TGI (PC-3 prostate): > 100 µM | TGI (RPMI-8226 leukemia): > 100 µM | TGI (RXF 393 renal): > 100 µM | TGI (SF-268 CNS): > 100 µM | TGI (SF-295 CNS): > 100 µM | TGI (SF-539 CNS): > 100 µM | TGI (SK-MEL-28 melanoma): > 100 µM | TGI (SK-MEL-5 melanoma): > 100 µM | TGI (SN12C renal): > 100 µM | TGI (SNB-19 CNS): > 100 µM | TGI (SNB-75 CNS): > 100 µM | TGI (SR leukemia): > 100 µM | TGI (SW-620 colon): > 100 µM | TGI (TK-10 renal): > 100 µM | TGI (U251 CNS): > 100 µM | TGI (UACC-257 melanoma): > 100 µM | TGI (UO-31 renal): > 100 µM
